Measurements as given in patent US20050042209A1, “MUC1 extracellular domain and cancer treatment compositions and methods derived therefrom” (priority 2000, published 2005).
Where two headings read alike, the source gives them in different places. d = 2'-deoxy (DNA); r = 2'-OH (RNA)

What was measured:
MUC1 [1] = details: for MUC1 protein (immunoblot): 0.8 μM
Procedure: Cell Culture: Human MCF-7 breast carcinoma and HeLa cervical carcinoma cella (obtained form the ATCC, Manassas, Va.) were grown in DMEM (high glucose; Mediatech, Cellgrow) supplemented with 10% heat-inactivated fetal calf serum (FCS) and 2 mM L-glutamate.
Immunoblot analysis: Cells were lysed in ice-cold lysis buffer (20 mM Tris-HCl, pH 8.0, 150 mM NaCl, 1% Triton-X-100, 1 mM phenylsulfonyl fluoride, 1 mM DTT, 10 μgm/ml aprotinin) for 30 min. Lysates were cleared by centrifugation for 20 min. at 4° C. as described (Yin et al, 2001). Proteins were separated by SDS-PAGE, transferred to nitrocellulose and probed with anti-DF3/MUC1 (Kufe, U.S. Pat. No. 5,506,34) or anti-β-actin (Sigma). The antigen-antibody complexes were visualized by enhanced chemiluminescence (ECL; Amersham Life Sciences).
CDDO downregulates MUC1 expression: MUC1-positive cells were treated with CDDO at concentrations of 1, 3 and 5 μM.

[2] = test system: intrinsic apoptotic pathway; assay: Activation of the intrinsic apoptotic pathway in 3Y1 cells; type: cell-based, Rat; details: for mitochondrial transmembrane potential: 10 mM ara-C
Procedure: (§1) Cell culture. Rat 3Y1 fibroblasts stably expressing the empty vector or full-length MUC1 (19) were cultured in Dulbecco's modified Eagle's medium containing 10% heat-inactivated fetal calf serum, 100 units/ml penicillin, […] streptomycin and 2 mM L-glutamine. Cells were treated with 25 mM LY294002 (Sigma), 10 mM 1-b-D-arabinofuranosycyltosine (ara-C; Sigma) or 50 mM gemcitabine (Eli Lilly).
Immunoblot analysis. Whole cell lysates and cytoplasmic fractions were prepared from subconfluent cells as described (Li et all., 1998; Li et al., 2001).
Assessment of mitochondrial transmembrane potential. Cells were incubated with 50 ng/ml Rhodamine 123 (Molecular Probes, Eugene, Oreg.) for 15 min at 37° C. After washing with PBS, samples were analyzed by flow cytometry using 488 nm excitation and measurement of emission through a 575/26 (ethidium) bandpass filter.
Isolation of mitochondria. Mitochondria were purified as described (Kumar et al., 2003).
MUC1 blocks activation of the intrinsic apoptotic pathway. Increases in phospho-Bad and Bcl-xL protect against apoptosis induced by activation of the intrinsic mitochondrial pathway (Van Heiden et al., 1997; Datta et al., 1995). To assess the effects of MUC1 on chemosensitivity, we treated cells with ara-C, an antimetabolite that induces release of mitochondrial cytochrome c and thereby apoptosis (Major et al., 1981; Kojima et al., 1998). Exposure of 3Y1/vector-A and -B cells to ara-C was associated with a decrease in mitochondrial transmembrane potential (FIG. 3A). […] Moreover, caspase-3-mediated cleavage of PKCd (Emoto et at., 1995) was attenuated in the MUC1 expressing cells. […] These findings indicate that MUC1 attenuates ara-C-induced activation of the intrinsic apoptotic pathway.

3Y1 fibroblasts = assay: Apoptosis assays (TUNEL, sub-G1 DNA) in 3Y1 cells; type: cell-based, Rat
Procedure: as §1
Apoptosis assays. For TUNEL staining, cells were fixed in 4% paraformaldehyde, permeabilized in 0.1% Triton X-100/0.1% sodium citrate for 2 min and processed according to the manufacturer's instructions (In Situ Cell Death detection kit, fluorescein; Roche). For analysis of sub-G1 DNA, cells were washed with PBS, fixed in 70% ethanol, incubated with 2.5 mg/ml propidium iodide and 50 mg/ml RNase, and then monitored by FACScan.
MUC1 attenuates ara-C- and gemcitabine-induced apoptosis. To determine if MUC1 affects induction of apoptosis by ara-C, the 3Y1/vector and 3Y1/MUC1 cells were analyzed for TUNEL staining and sub-G1 DNA. […] Moreover, ara-C treatment of 3Y1/vector cells was associated with over 40% apoptosis as determined by sub-G1 DNA analysis.
To extend these observations to other anti-cancer agents, we treated the 3Y1/vector and 3Y1/MUC1 cells with gemcitabine. As determined by analysis of sub-G1 DNA and as found with ara-C, gemcitabine-induced apoptosis was attenuated in 3Y1/MUC1, as compared to 3Y1/vector, cells.

MUC1 [3] = assay: MUC1 induction by oxidative and genotoxic stress (immunoblot); details: MCF-7 cells
Procedure: To determine whether MUC1 is induced in response to oxidative stress, MCF-7 cells were treated with hydrogen peroxide. Cell lysates were analyzed by immunoblotting with anti-DF3/MUC1 antibody. Lysates were prepared by suspending MCF-7 cells in lysis buffer (50 mM Tris, pH 7.6, 150 mM NaCl, 1 mM PMSF, 3 mM NaF, 1 mM sodium vandate, 1 mM DTT with protease inhibitors and either 1% NP-40 or 1% Brij-96) for 30 min. on ice. Lysates were cleared by centifugation and equal amounts of proteins were resolved by SDS-PAGE. Proteins were then transferred to nitrocellulose filters, blocked by incubation in 5% non-fat dry milk in PBS with 0.05% Tween-20 and probed with anti-MUC1 antibody (Pandey et al., 1995). Anti-actin was used as a control.
Similar studies were performed with genotoxic agents.

[4] = test system: ZR-75-1 breast carcinoma cells; assay: Apoptosis assay (sub-G1 DNA) in ZR-75-1 cells; type: cell-based, human; details: ZR-75-1 cells; 10 and 50 μM etoposide
Procedure: Apoptosis assay: Apoptotic cells were quantified by analysis of sub-G1 DNA. Cells were harvested, washed with PBS, fixed with 80% ethanol, and incubated in PBS containing 20 ng/ml RNase (Roche) for 60 min at 37° C. Cells were stained with 40 μg/ml propidium iodide (Sigma) for 30 min at room temperature in the dark. DNA content was analyzed by flow cytometry (EPICS XL-MCL, Coulter Corp.).
As a control, stable transfection of ZR-75-1 cells with the empty reterovirus had no effect on MUC1 expression. […] By contrast, CDDP treatment of ZR-75-1/MUC1siRNA cells was associated with a clear loss of ΔΨm. In concert with these findings, cytochrome C release, as measured by immunoblot, was attenuated in CDDP-treated ZR-75-1/vector cells, as compared to ZR-75-1/MUC1siRNA cells. […] Treatment of ZR-75-1/vector cells with CDDP was associated with the induction of approximately 25% apoptosis.

HCT116 cells = assay: Apoptosis (sub-G1 DNA, TUNEL) in HCT116 transfectants; type: cell-based, human; details: HCT116/vector cells
Procedure: Methods. Apoptotic cells were quantified by analysis of sub-G1 DNA and TUNEL staining. To assess sub-G1 DNA content, cells were harvested, washed with PBS, fixed with 80% ethanol, and incubated in PBS containing 20 ng/ml RNase (Roche) for 60 min at 37° C. Cells were then stained with […] propidium iodide (Sigma) for 30 min at room temperature in the dark. DNA content was analyzed by flow cytometry (EPICS XL-MCL, Coulter Corp.). Apoptotic cells with DNA fragmentation were detected by staining with the In Situ cell death detection kit (TUNEL; Roche Applied Science) and visualized by confocal microscopy (ZEISS LSM510). After staining, cells were analyzed by flow cytometry. Other experimental procedures and methods were as described in Example 15.
Results. To determine if MUC1 affects the induction of apoptosis by CDDP, cells were analyzed for sub-G1 DNA content. […] Stimulation of cell surface death receptors with TNF-α or the TNF-related apoptosis inducing factor TRAIL is associated with activation of the extrinsic apoptotic pathway. To determine if MUC1 affects death receptor-induced apoptosis, HCT116 cells were treated with TNF-α.

MUC1 [5] = assay: Western blot of MUC1 after siRNA transfection; type: cell-based, human; details: MCF-7 cells; siRNA 0.2 micromolar; FIG. 5, FIG. 6
Excerpt: Cell Culture: Human MCF-7 breast cancer cells were maintained in DMEM supplemented with 10% heat inactivated fetal bovine serum (FBS) and 1% penicillin-streptomycin mixture. Human A549 non-small cell lung cancer cells were maintained in RPMI1640 medium supplemented with 10% FBS and 1% penicillin-streptomycin mixture.
siRNAs: Five different double stranded anti-MUC1 siRNAs were designed: one against the target sequence SEQ ID NO: 63, i.e., […], with sense and antisense strands as shown in SEQ ID NO: 64 and SEQ ID NO: 65 respectively (hereinafter siRNA #1); one against the target sequence SEQ ID NO: 42, i.e., […], with sense and antisense strands as shown in SEQ ID NO: 43 and SEQ ID NO: 44 respectively (hereinafter siRNA #2); one against the target sequence SEQ ID NO: 21, i.e., […], with sense and antisense strands as shown in SEQ ID NO: 22 and SEQ ID NO: 23 respectively (hereinafter siRNA #3); one against the target sequence SEQ ID NO: 66, i.e., […], with sense and antisense strands as shown by SEQ ID NO: 67 and SEQ ID NO: 68 respectively (hereinafter siRNA #4); and one against target sequence SEQ ID NO: 69, i.e., […], with sense and antisense strands as shown by SEQ ID NO: 70 and SEQ ID NO: 71 respectively (hereinafter siRNA #5). A control siRNA was designed against the scrambled target SEQ ID NO: 72 with sense and antisense strands as shown by SEQ ID NO: 73 and SEQ ID NO: 74 respectively. Each RNA sense oligonucleotide (50 μM) was combined with equal volume of antisense oligonucleotide (50 μM) in an annealing buffer (20 mM KCl, 6 mM HEPES-KOH, pH 7.5, 0.2 mM MgCl2). The solution was incubated for 1 min at 90° C. to denature secondary structure, and placed at 37° C. for 1 hour to anneal the complementary strands. The subsequent double stranded RNAs were used as the anti-MUC1 siRNA.
Transfection: Cells (1-3×10^5 cells/well) were plated in 6-well plates in growth medium without antibiotics, and incubated overnight. After washing cells once with Opti-MEM I (Invitrogen), 800 μL of fresh Opti-MEM I and 200 μL of the Reagent (Invitrogen) were added to the cultured cells. Four hours later, 300 μL of FBS was added to the cultured cells.
Western Blot Analysis: Cell were passed a day before transfection. MUC1 siRNA (0.2 micromolar) was added with oligofectamine to cells in 0% FBS. Four hours later serum was added to a final concentration of 10%. After various time intervals (48 h, 72 h and 96 h), cells were washed and total cell lysates were prepared. Proteins were separated from cell lysates by SDS-PAGE, transferred to nitrocellulose and analyzed by immunoblotting with anti-DF3 antibodies.

## 2-propyl-imadazole CDDO [CDDO-Pr-Im]
MUC1 [1]
  MUC1 protein (immunoblot): decreased levels

## CC1(C)CC[C@]2(C(=O)n3ccnc3)CC[C@]3(C)[C@H](C(=O)C=C4[C@@]5(C)C=C(C#N)C(=O)C(C)(C)[C@@H]5CC[C@]43C)[C@@H]2C1 [CDDO-Im, imadzole CDDO]
MUC1 [1]
  MUC1 protein (immunoblot): decreased levels

## COC(=O)[C@]12CCC(C)(C)C[C@H]1[C@H]1C(=O)C=C3[C@@]4(C)C=C(C#N)C(=O)C(C)(C)[C@@H]4CC[C@@]3(C)[C@]1(C)CC2 [CDDO-Me, CDDO methyl ester]
MUC1 [1]; 1 μM, 12 hr and 24 hr
  MUC1 expression (immunoblot): detectable at 12 hr and nearly complete at 24 hr

## N[C@@H](CCC(=O)N[C@@H](CS)C(=O)NCC(=O)O)C(=O)O [GSH, glutathione]
MUC1 [1]; cells treated with antioxidant
  CDDO-, CDDO-Me-, CDDO-Im- and CDDO-Pr-Im-induced decreases in MUC1: blocked the effects

## Nc1ccn([C@@H]2O[C@H](CO)[C@@H](O)[C@@H]2O)c(=O)n1 [ara-C, 1-b-D-arabinofuranosycyltosine]
[2]; 3Y1/MUC1 cells
  mitochondrial transmembrane potential: apparent increase
[2]; 3Y1/MUC1 compared to 3Y1/vector cells
  activation of caspase-9: attenuated
[2]; 3Y1/vector and 3Y1/MUC1 cells
  release of cytochrome c into the cytosol: release of cytochrome c into the cytosol of 3Y1/vector, and not 3Y1/MUC1
[2]; 3Y1/vector-A and -B cells
  mitochondrial transmembrane potential: decrease
[2]; MUC1 expressing cells
  caspase-3-mediated cleavage of PKCd: attenuated
3Y1 fibroblasts; 3Y1/MUC1 cells
  ara-C-induced apoptosis: significantly attenuated
3Y1 fibroblasts; 3Y1/vector cells
  apoptosis (sub-G1 DNA analysis): over 40%
3Y1 fibroblasts; 3Y1/vector, but not 3Y1/MUC1, cells
  TUNEL staining: substantial induction

## COc1cccc2c1C(=O)c1c(O)c3c(c(O)c1C2=O)C[C@@](O)(C(C)=O)C[C@@H]3O[C@H]1C[C@H](N)[C@H](O)[C@H](C)O1 [daunorubicin]
MUC1 [3]
  MUC1 expression (immunoblot): rapid and transient induction

## COc1cc([C@@H]2c3cc4c(cc3[C@@H](O[C@@H]3O[C@@H]5CO[C@@H](C)O[C@H]5[C@H](O)[C@H]3O)[C@H]3COC(=O)[C@H]23)OCO4)cc(OC)c1O [etoposide]
[4]
  sensitivity on knocking-down MUC1 expression: increased substantially

## Nc1ccn([C@@H]2O[C@H](CO)[C@@H](O)C2(F)F)c(=O)n1 [gemcitabine]
3Y1 fibroblasts; 3Y1/MUC1 compared to 3Y1/vector cells, 50 mM gemcitabine
  gemcitabine-induced apoptosis (sub-G1 DNA): attenuated

## TNF-α
HCT116 cells; TNF-α alone
  apoptosis: failed to induce apoptosis
HCT116 cells; in the presence of cycloheximide (CHX), FIG. 18
  apoptosis: induction of HCT116/vector cell apoptosis

## siRNA #3: double stranded anti-MUC1 siRNA, target SEQ ID NO: 21, sense SEQ ID NO: 22, antisense SEQ ID NO: 23 (sense AAGGAGACUUCGGCUGCCCTT; antisense GGGCAGCCGAAGUCUCCUUTT; sugars from the 5' end r19 d2, backbone not given here)
MUC1 [5]
  MUC1 expression at the protein level (immunoblot): downregulation of MUC1 expression

## siRNA #4: double stranded anti-MUC1 siRNA, target SEQ ID NO: 66, sense SEQ ID NO: 67, antisense SEQ ID NO: 68 (sense GUUCAGUGCCCAGCUCUACTT; antisense GUAGAGCUGGGCACUGAACTT; sugars from the 5' end r19 d2, backbone not given here)
MUC1 [5]
  MUC1 expression at the protein level (immunoblot): downregulation of MUC1 expression

## siRNA #5: double stranded anti-MUC1 siRNA, target SEQ ID NO: 69, sense SEQ ID NO: 70, antisense SEQ ID NO: 71 (sense GGUUUCUGCAGGUAAUGGUTT; antisense ACCAUUACCUGCAGAAACCTT; sugars from the 5' end r19 d2, backbone not given here)
MUC1 [5]
  MUC1 expression at the protein level (immunoblot): downregulation of MUC1 expression
